These results are taken from PubChem BioAssay AID256 (DTP/NCI, 2004).

Toxic doses and inconclusive results are not listed.

The test relates to CD2F1 mice, L1210 leukemia ip, survival T/C. As to the kind of experiment: NCI In Vivo Anticancer Drug Screen. Data for tumor model L1210 Leukemia (intraperitoneal) in CD2F1 (CDF1) mice. Conditions: endpoint: mean survival time, higher = longer survival. In short, it runs like this:
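Tumor-bearing mice (transplanted tumor) were split into treated and vehicle control groups, and the measured endpoint of each treated group was divided by that of its vehicle controls.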

[1] abbreviates: dose: 100.0 mg/kg/injection, schedule: Q04DX002 (ip), vehicle: saline with Tween-80.
Setting [2] is: dose: 200.0 mg/kg/injection, schedule: Q04DX002 (ip), vehicle: saline with Tween-80.
Setting [3] is: dose: 400.0 mg/kg/injection, schedule: Q04DX002 (ip), vehicle: saline with Tween-80.
Setting [4] is: dose: 100.0 mg/kg/injection, schedule: Q01DX001 (ip), vehicle: saline with Tween-80.
[5] abbreviates: dose: 100.0 mg/kg/injection, schedule: Q04DX003 (ip), vehicle: saline with Tween-80.
Setting [6] is: dose: 200.0 mg/kg/injection, schedule: Q04DX003 (ip), vehicle: saline with Tween-80.
Setting [7] is: dose: 400.0 mg/kg/injection, schedule: Q04DX003 (ip), vehicle: saline with Tween-80.
Setting [8] is: dose: 100.0 mg/kg/injection, schedule: Q01DX009 (ip), vehicle: saline with Tween-80.
Where [9] appears, read: dose: 200.0 mg/kg/injection, schedule: Q01DX009 (ip), vehicle: saline with Tween-80.
Where [10] appears, read: dose: 400.0 mg/kg/injection, schedule: Q01DX009 (ip), vehicle: saline with Tween-80.

As for `CC12CCC(OC3CCCCO3)CC1=CCC1C2CCC2(C)C1CCC21CCNP(=O)(N(CCCl)CCCl)O1` (stereo not given), the T/C (dose: 12.5 mg/kg/injection, schedule: Q01DX005 (ip), vehicle: other) is 100 % of control; the T/C (dose: 25.0 mg/kg/injection, schedule: Q01DX005 (ip), vehicle: other) was 91 % of control; the T/C (dose: 50.0 mg/kg/injection, schedule: Q01DX005 (ip), vehicle: other) was 95 % of control; the T/C (dose: 100.0 mg/kg/injection, schedule: Q01DX005 (ip), vehicle: other) was 95 % of control; the T/C (dose: 125.0 mg/kg/injection, schedule: Q01DX001 (ip), vehicle: Klucel (hydroxypropylcellulose) (HPC)) is 95 % of control; the T/C (dose: 250.0 mg/kg/injection, schedule: Q01DX001 (ip), vehicle: Klucel (hydroxypropylcellulose) (HPC)) is 96 % of control. Moreover, the T/C reads like this: (dose: 500.0 mg/kg/injection, schedule: Q01DX001 (ip), vehicle: Klucel (hydroxypropylcellulose) (HPC)) 101 % of control; (dose: 1000.0 mg/kg/injection, schedule: Q01DX001 (ip), vehicle: Klucel (hydroxypropylcellulose) (HPC)) 98 % of control.

As to `CCOC(=O)Nc1cccc([N+](=O)[O-])c1`, the T/C runs as follows: (dose: 100.0 mg/kg/injection, schedule: Q01DX009 (ip), vehicle: other) 98 % of control; (dose: 200.0 mg/kg/injection, schedule: Q01DX009 (ip), vehicle: other) 113 % of control.

Consider `CCCC(=O)c1c(C)cc(C)cc1C`, for which the T/C by setting is: (dose: 100.0 mg/kg/injection, schedule: Q04DX003 (ip), vehicle: other) 98 % of control; (dose: 200.0 mg/kg/injection, schedule: Q04DX003 (ip), vehicle: other) 104 % of control; (dose: 400.0 mg/kg/injection, schedule: Q04DX003 (ip), vehicle: other) 98 % of control.

With `COc1ccccc1NC(=O)Oc1ccc(SC)c(C)c1`, the T/C is, setting by setting: under setting [1], 100 % of control; under setting [2], 95 % of control; under setting [3], 95 % of control.

Take `O=C1NC(=O)C(c2ccccc2)(C2CCCC2)N1` (stereo not given): the T/C (dose: 50.0 mg/kg/injection, schedule: Q04DX003 (ip), vehicle: Klucel (hydroxypropylcellulose) (HPC)) was 104 % of control; the T/C (dose: 100.0 mg/kg/injection, schedule: Q04DX003 (ip), vehicle: Klucel (hydroxypropylcellulose) (HPC)) is 98 % of control; the T/C (dose: 200.0 mg/kg/injection, schedule: Q04DX003 (ip), vehicle: Klucel (hydroxypropylcellulose) (HPC)) was 95 % of control.

For the compound `c1ccc(CC23CN(C4CCCCC4)CC24N(c2ccccc23)C23CN(C5CCCCC5)CC2(Cc2ccccc2)c2ccccc2N43)cc1` (stereo not given), the T/C under setting [4] is 90 % of control.

Take `CN1CC(NC(=O)N(CCCl)N=O)CC2c3cccc4c3c(cn4N=O)CC21` (stereo not given): the T/C is, setting by setting: (dose: 12.5 mg/kg/injection, schedule: Q01DX001 (ip), vehicle: other) 105 % of control; (dose: 25.0 mg/kg/injection, schedule: Q01DX001 (ip), vehicle: other) 117 % of control; (dose: 50.0 mg/kg/injection, schedule: Q01DX001 (ip), vehicle: other) 121 % of control; (dose: 200.0 mg/kg/injection, schedule: Q01DX001 (ip), vehicle: other) 164 % of control; (dose: 400.0 mg/kg/injection, schedule: Q01DX001 (ip), vehicle: other) 289 % of control.

With `[Cl][Pt+2][Cl].[NH-]c1ccc(S(=O)(=O)Nc2ccccn2)cc1.[NH-]c1ccc(S(=O)(=O)Nc2ccccn2)cc1`, the T/C (dose: 25.0 mg/kg/injection, schedule: Q04DX003 (ip), vehicle: saline with Tween-80) is 97 % of control; the T/C (dose: 50.0 mg/kg/injection, schedule: Q04DX003 (ip), vehicle: saline with Tween-80) is 97 % of control; the T/C under setting [5] is 96 % of control; the T/C under setting [6] was 102 % of control; the T/C under setting [7] was 107 % of control.

Consider `CC(=O)c1c(C)c2c(C)cc3oc(=O)c(C(C)=O)c(C)c3c2oc1=O`, for which the T/C was 92 % of control under setting [2] and 87 % of control under setting [3].

As to `CCCCCCCC/C=C/CCCCCCCC1=NCCN1CCO`, the T/C is 95 % of control under setting [1], 103 % of control under setting [2] and 100 % of control under setting [3].

With `CCCCCCCCCCCCCC(CCCC)CCCCCCCC` (stereo not given), the T/C was 107 % of control (dose: 100.0 mg/kg/injection, schedule: Q01DX001 (ip), vehicle: saline sonified); 95 % of control (dose: 200.0 mg/kg/injection, schedule: Q01DX001 (ip), vehicle: saline sonified); 102 % of control (dose: 400.0 mg/kg/injection, schedule: Q01DX001 (ip), vehicle: saline sonified).

With `O=S(=O)(c1ccc(NC(=S)N/N=C/c2ccccc2O)cc1)N1CCCCC1`, the T/C was 98 % of control (dose: 12.5 mg/kg/injection, schedule: Q01DX009 (ip), vehicle: olive oil, sesame oil, peanut oil); 94 % of control (dose: 25.0 mg/kg/injection, schedule: Q01DX009 (ip), vehicle: olive oil, sesame oil, peanut oil); 102 % of control (dose: 50.0 mg/kg/injection, schedule: Q01DX009 (ip), vehicle: olive oil, sesame oil, peanut oil); 104 % of control (dose: 100.0 mg/kg/injection, schedule: Q01DX009 (ip), vehicle: olive oil, sesame oil, peanut oil); 94 % of control (dose: 200.0 mg/kg/injection, schedule: Q01DX009 (ip), vehicle: olive oil, sesame oil, peanut oil); 96 % of control (dose: 400.0 mg/kg/injection, schedule: Q01DX009 (ip), vehicle: olive oil, sesame oil, peanut oil).

Take `O=C(O)/C=C\SCCCC(=O)O`: the T/C is, setting by setting: under setting [4], 94 % of control; (dose: 200.0 mg/kg/injection, schedule: Q01DX001 (ip), vehicle: saline with Tween-80) 111 % of control; (dose: 400.0 mg/kg/injection, schedule: Q01DX001 (ip), vehicle: saline with Tween-80) 103 % of control.

As for `CCN(CC)CCSCCSCCN(CC)CC`, the T/C is, setting by setting: (dose: 100.0 mg/kg/injection, schedule: Q01DX001 (ip), vehicle: saline) 100 % of control; (dose: 200.0 mg/kg/injection, schedule: Q01DX001 (ip), vehicle: saline) 100 % of control.

With `O=[N+]([O-])c1ccc2c(c1)C(Br)c1cc(Br)ccc1-2` (stereo not given), the T/C under setting [8] was 93 % of control; the T/C under setting [5] was 100 % of control; the T/C under setting [9] is 88 % of control; the T/C under setting [6] is 100 % of control; the T/C under setting [10] was 90 % of control; the T/C under setting [7] is 92 % of control.

With `CCCCN1CCN(CCCC)C1CCC`, the T/C runs as follows: (dose: 25.0 mg/kg/injection, schedule: Q01DX009 (ip), vehicle: saline with Tween-80) 98 % of control; (dose: 50.0 mg/kg/injection, schedule: Q01DX009 (ip), vehicle: saline with Tween-80) 102 % of control; under setting [8], 96 % of control.

Turning to `O=c1sc(N=Nc2ccccc2)nn1-c1ccccc1`, the T/C runs as follows: (dose: 100.0 mg/kg/injection, schedule: Q04DX003 (ip), vehicle: saline) 92 % of control; (dose: 200.0 mg/kg/injection, schedule: Q04DX003 (ip), vehicle: saline) 91 % of control.

Regarding `CC(=O)C(C(c1ccccc1)C1CCCc2ccccc21)N1CCOCC1` (stereo not given), the T/C runs as follows: under setting [8], 104 % of control; under setting [5], 103 % of control; under setting [9], 98 % of control; under setting [6], 100 % of control; under setting [10], 95 % of control; under setting [7], 101 % of control.

In the case of `O=[N+]([O-])O.O=[N+]([O-])O.[Cu].c1ccc(CN2CCN(Cc3ccccc3)CCN(Cc3ccccc3)CCN(Cc3ccccc3)CC2)cc1`, the T/C was 91 % of control (dose: 6.25 mg/kg/injection, schedule: Q01DX001 (ip), vehicle: Klucel (hydroxypropylcellulose) (HPC)); 94 % of control (dose: 12.5 mg/kg/injection, schedule: Q01DX001 (ip), vehicle: Klucel (hydroxypropylcellulose) (HPC)); 108 % of control (dose: 25.0 mg/kg/injection, schedule: Q01DX001 (ip), vehicle: Klucel (hydroxypropylcellulose) (HPC)); 100 % of control (dose: 50.0 mg/kg/injection, schedule: Q01DX001 (ip), vehicle: Klucel (hydroxypropylcellulose) (HPC)).
